Measurements taken from US12303509B2, “Compounds for the treatment of BRAF-associated diseases and disorders” (Pfizer Inc., priority 2020, dated 2025).
Structures can show the parent of a compound that is named as a salt. Where two headings read alike, the source gives them in different places.

Columns and labels:
BCRP = BCRP (Homo sapiens (Human), UniProt Q9UNQ0); assay: BCRP MDCKII permeability assay: efflux ratio; assay type: in vitro ADME; conditions: dog
A375 cells = assay: Cellular phospho-ERK inhibition assay in A375 cells; assay type: cell-based; conditions: Homo sapiens, A-375, A375 cells (head prints A357), 2 hours treatment, read-out: A357 cell IC50
Procedure, shortened: (§1)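 In Cell Western detection of phospho-ERK1/2 (Thr202/Tyr204) over GAPDH after 2 h compound exposure (66 pM to 10 μM, 9 points, 0.25% DMSO) of A375 cells in DMEM or H1755 cells in RPMI, both with 10% FBS. Percent of control set by DMSO and 10 μM binimetinib; 4-parameter IC50.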

H1755 cells = assay: Cellular phospho-ERK inhibition assay in H1755 cells; assay type: cell-based; conditions: Homo sapiens, NCI-H1755, 2 hours treatment, read-out: H1755 Cell IC50
Procedure, shortened: as §1

[1] = target: full-length FLAG-tagged B-Raf(V600E) (Homo sapiens (Human), UniProt P15056, V600E); assay: BRAF V600E enzyme assay (TR-FRET competitive displacement); assay type: binding
Procedure, shortened: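 TR-FRET tracer competition: compound (top dose 10 μM, 3-fold, 11 points) incubated 60 min at ambient temperature with FLAG-tagged full-length B-Raf(V600E) (5 nM), Eu anti-FLAG cryptate (0.5 nM) and tracer (50 nM), pH 7.4 HEPES/MgCl2 buffer. 665/615 ratio converted to percent of control; IC50 where fitted curve crosses 50 POC.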

P-gp (MDR1) = P-gp (MDR1) (Homo sapiens (Human), UniProt P08183); assay: MDR1 LLC-PK1 permeability assay: efflux ratio; assay type: in vitro ADME; conditions: pig
Description: (§2) Final organic concentration in the assay was 1%.

[2] = MDR1 LLC-PK1 and BCRP MDCKII permeability assay: permeability coefficient (Papp); assay type: in vitro ADME
Description: as §2

[3] = averaged IC50, TR-FRET tracer displacement, 60 min

Sequence of P-gp (MDR1) (P08183 whole entry, species assumed): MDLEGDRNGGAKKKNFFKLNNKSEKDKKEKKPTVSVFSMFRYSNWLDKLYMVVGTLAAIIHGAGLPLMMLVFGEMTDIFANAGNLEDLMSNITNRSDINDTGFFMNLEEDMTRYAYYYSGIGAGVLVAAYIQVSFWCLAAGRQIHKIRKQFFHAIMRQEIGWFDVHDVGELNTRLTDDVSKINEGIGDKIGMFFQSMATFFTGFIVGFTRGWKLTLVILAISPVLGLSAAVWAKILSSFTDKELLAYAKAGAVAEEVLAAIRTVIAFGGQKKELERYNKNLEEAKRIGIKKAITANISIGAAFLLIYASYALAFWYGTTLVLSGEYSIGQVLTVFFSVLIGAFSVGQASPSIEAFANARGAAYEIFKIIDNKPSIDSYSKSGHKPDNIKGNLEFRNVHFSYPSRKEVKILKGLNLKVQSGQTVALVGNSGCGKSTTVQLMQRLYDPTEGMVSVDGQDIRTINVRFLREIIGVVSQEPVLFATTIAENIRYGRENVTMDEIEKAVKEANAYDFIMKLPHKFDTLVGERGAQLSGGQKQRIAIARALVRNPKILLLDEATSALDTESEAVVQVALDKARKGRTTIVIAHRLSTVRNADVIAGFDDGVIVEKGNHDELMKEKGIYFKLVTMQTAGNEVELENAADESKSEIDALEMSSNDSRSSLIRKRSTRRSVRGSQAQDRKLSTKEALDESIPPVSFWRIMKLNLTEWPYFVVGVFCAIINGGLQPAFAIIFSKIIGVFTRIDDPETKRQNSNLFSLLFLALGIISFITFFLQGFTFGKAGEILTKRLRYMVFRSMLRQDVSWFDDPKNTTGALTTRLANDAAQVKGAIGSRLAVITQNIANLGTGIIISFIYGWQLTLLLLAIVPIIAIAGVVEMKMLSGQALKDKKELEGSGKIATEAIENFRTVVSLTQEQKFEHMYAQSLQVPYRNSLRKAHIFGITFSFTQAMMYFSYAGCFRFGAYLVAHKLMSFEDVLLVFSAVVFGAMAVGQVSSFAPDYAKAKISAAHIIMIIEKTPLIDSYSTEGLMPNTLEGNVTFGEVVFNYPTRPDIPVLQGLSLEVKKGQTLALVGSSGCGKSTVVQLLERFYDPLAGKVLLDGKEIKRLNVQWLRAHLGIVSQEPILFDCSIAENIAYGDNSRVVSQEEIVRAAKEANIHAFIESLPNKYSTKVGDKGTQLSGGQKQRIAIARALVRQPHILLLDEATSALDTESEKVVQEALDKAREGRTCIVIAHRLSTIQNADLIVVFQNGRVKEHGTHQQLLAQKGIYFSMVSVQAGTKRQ
Sequence of BCRP (Q9UNQ0 whole entry): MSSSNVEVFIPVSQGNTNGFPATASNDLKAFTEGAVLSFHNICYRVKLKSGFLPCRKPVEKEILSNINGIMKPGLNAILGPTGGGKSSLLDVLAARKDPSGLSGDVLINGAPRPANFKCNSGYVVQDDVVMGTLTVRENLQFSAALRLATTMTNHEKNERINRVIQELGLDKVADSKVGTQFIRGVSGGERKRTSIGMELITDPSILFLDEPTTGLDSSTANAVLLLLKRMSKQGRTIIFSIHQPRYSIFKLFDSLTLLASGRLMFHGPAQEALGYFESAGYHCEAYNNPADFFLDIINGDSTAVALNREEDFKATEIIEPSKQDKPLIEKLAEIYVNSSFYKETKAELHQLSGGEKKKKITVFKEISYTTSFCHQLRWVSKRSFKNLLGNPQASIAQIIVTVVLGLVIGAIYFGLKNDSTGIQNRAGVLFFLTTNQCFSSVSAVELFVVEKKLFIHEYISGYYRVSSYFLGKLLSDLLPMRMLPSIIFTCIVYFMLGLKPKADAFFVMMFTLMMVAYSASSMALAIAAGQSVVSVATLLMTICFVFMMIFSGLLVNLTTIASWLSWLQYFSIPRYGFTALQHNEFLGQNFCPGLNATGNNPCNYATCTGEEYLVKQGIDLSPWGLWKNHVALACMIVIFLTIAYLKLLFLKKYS
Sequence of full-length FLAG-tagged B-Raf(V600E) (P15056 whole entry V600E): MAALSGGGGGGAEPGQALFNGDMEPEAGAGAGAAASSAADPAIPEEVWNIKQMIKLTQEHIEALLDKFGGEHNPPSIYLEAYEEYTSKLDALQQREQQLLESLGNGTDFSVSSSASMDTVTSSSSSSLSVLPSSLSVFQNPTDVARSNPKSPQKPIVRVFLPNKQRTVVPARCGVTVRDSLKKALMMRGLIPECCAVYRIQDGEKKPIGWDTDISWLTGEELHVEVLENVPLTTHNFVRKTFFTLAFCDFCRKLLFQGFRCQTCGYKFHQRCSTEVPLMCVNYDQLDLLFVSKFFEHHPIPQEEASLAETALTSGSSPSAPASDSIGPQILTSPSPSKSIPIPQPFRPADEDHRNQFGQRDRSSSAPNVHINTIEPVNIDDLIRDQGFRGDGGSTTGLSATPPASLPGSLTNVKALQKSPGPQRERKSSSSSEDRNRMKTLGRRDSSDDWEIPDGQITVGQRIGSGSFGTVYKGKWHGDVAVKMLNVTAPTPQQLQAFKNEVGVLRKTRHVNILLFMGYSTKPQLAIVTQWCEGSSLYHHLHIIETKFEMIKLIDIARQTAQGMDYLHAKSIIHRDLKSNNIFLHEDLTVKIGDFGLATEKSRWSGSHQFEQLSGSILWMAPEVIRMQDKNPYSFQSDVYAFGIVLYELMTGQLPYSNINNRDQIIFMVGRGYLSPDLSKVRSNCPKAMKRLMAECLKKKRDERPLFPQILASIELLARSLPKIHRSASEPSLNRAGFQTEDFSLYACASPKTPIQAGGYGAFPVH

efflux ratio at 2 h, 1 µM (BCRP) | IC50 (A375 cells) | IC50 (H1755 cells) | IC50 [1, 3] | efflux ratio at 2 h, 1 µM (P-gp (MDR1)) | Papp at 2 h, 1 µM [2] | IC50 [1] | SMILES
0.8 | 17 nM | 75 nM | 7 nM | 1.3 | 28 ×10⁻⁶ cm/s |  | Cn1cnc2ccc(Nc3c(F)ccc(NS(=O)(=O)N4CCCC4)c3Cl)c(Br)c2c1=O [Example 11, N-(3-((5-bromo-3-methyl-4-oxo-3,4-dihydroquinazolin-6-yl)amino)-2-chloro-4-fluorophenyl)pyrrolidine-1-sulfonamide trifluoroacetate]
1.9 | 8 nM | 116 nM | 1 nM | 2.7 | 30 ×10⁻⁶ cm/s |  | Cn1cnc2ccc(Oc3c(F)ccc(NS(=O)(=O)N4CC[C@H](F)C4)c3Cl)c(Cl)c2c1=O [Example 107, (S)-N-(2-chloro-3-((5-chloro-3-methyl-4-oxo-3,4-dihydroquinazolin-6-yl)oxy)-4-fluorophenyl)-3-fluoropyrrolidine-1-sulfonamide]
1 | 13 nM | 127 nM |  | 1.3 | 28 ×10⁻⁶ cm/s | 2 nM | Cn1cnc2ccc(Oc3c(F)ccc(NS(=O)(=O)N4CC5CC5C4)c3Cl)c(F)c2c1=O (stereo not drawn) [Example 65, N-(2-chloro-4-fluoro-3-((5-fluoro-3-methyl-4-oxo-3,4-dihydroquinazolin-6-yl)oxy)phenyl)-3-azabicyclo[3.1.0]hexane-3-sulfonamide]
1 | 5 nM | 83 nM | 2 nM | 1.8 | 32 ×10⁻⁶ cm/s |  | CO[C@@H]1CCN(S(=O)(=O)Nc2cc(F)c(F)c(Nc3ccc4ncn(C)c(=O)c4c3Cl)c2Cl)C1 [Example 32, (R)-N-(2-chloro-3-((5-chloro-3-methyl-4-oxo-3,4-dihydroquinazolin-6-yl)amino)-4,5-difluorophenyl)-3-methoxypyrrolidine-1-sulfonamide trifluoroacetate]
2.5 | 2 nM | 23 nM | 2 nM | 3.6 | 26 ×10⁻⁶ cm/s |  | CO[C@@H]1CCN(S(=O)(=O)Nc2cc(F)c(F)c(Nc3ccc4ncn(C)c(=O)c4c3F)c2Cl)C1 [Example 47, (R)-N-(2-chloro-4,5-difluoro-3-((5-fluoro-3-methyl-4-oxo-3,4-dihydroquinazolin-6-yl)amino)phenyl)-3-methoxypyrrolidine-1-sulfonamide trifluoroacetate]
0.7 | 12 nM | 84 nM | 8 nM | 1.6 | 27 ×10⁻⁶ cm/s |  | CO[C@@H]1CCN(S(=O)(=O)Nc2ccc(F)c(Oc3ccc4ncn(C)c(=O)c4c3C)c2Cl)C1 [Example 10, (R)-N-(2-chloro-3-((3,5-dimethyl-4-oxo-3,4-dihydroquinazolin-6-yl)oxy)-4-fluorophenyl)-3-methoxypyrrolidine-1-sulfonamide]
3.7 | 4 nM | 15 nM | 6 nM | 3.3 | 31 ×10⁻⁶ cm/s |  | Cn1cnc2ccc(Nc3c(F)ccc(NS(=O)(=O)N4CC[C@@H](OC(F)F)C4)c3Cl)c(F)c2c1=O [Example 26, (R)-N-(2-chloro-4-fluoro-3-((5-fluoro-3-methyl-4-oxo-3,4-dihydroquinazolin-6-yl)amino)phenyl)-3-(difluoromethoxy)pyrrolidine-1-sulfonamide]
0.8 | 14 nM | 1590 nM | 1 nM | 1.2 | 25 ×10⁻⁶ cm/s |  | Cn1cnc2ccc(Oc3c(F)ccc(NS(=O)(=O)N4CC5CC5C4)c3Cl)c(Cl)c2c1=O (stereo not drawn) [Example 108, N-(2-chloro-3-((5-chloro-3-methyl-4-oxo-3,4-dihydroquinazolin-6-yl)oxy)-4-fluorophenyl)-3-azabicyclo[3.1.0]hexane-3-sulfonamide]
12.9 | 10 nM | 60 nM |  | 4.9 | 31 ×10⁻⁶ cm/s | 1 nM | Cn1cnc2ccc(Oc3c(F)ccc(NS(=O)(=O)N4C[C@@H](F)[C@@H](F)C4)c3Cl)c(Cl)c2c1=O [Example 59, cis-N-(2-chloro-3-((5-chloro-3-methyl-4-oxo-3,4-dihydroquinazolin-6-yl)oxy)-4-fluorophenyl)-3,4-difluoropyrrolidine-1-sulfonamide]
3.5 | 49 nM | 127 nM | 9 nM | 2.3 | 31 ×10⁻⁶ cm/s |  | Cc1c(Nc2c(F)ccc(NS(=O)(=O)N3C[C@@H](F)[C@@H](F)C3)c2Cl)ccc2ncn(C)c(=O)c12 [Example 90, (cis)-N-(2-chloro-3-((3,5-dimethyl-4-oxo-3,4-dihydroquinazolin-6-yl)amino)-4-fluorophenyl)-3,4-difluoropyrrolidine-1-sulfonamide]
1.3 | 25 nM | 128 nM | 16 nM | 1.5 | 49 ×10⁻⁶ cm/s |  | COC1CN(S(=O)(=O)Nc2ccc(F)c(Nc3ccc4ncn(C)c(=O)c4c3C)c2Cl)C1 [Example 128, N-(2-chloro-3-((3,5-dimethyl-4-oxo-3,4-dihydroquinazolin-6-yl)amino)-4-fluorophenyl)-3-methoxyazetidine-1-sulfonamide trifluoroacetate]
3.1 | 6 nM | 44 nM |  | 2.2 | 25 ×10⁻⁶ cm/s | 4 nM | Cn1cnc2ccc(Oc3c(F)ccc(NS(=O)(=O)N4CC[C@@H](OC(F)F)C4)c3Cl)c(F)c2c1=O [Example 66, (R)-N-(2-chloro-4-fluoro-3-((5-fluoro-3-methyl-4-oxo-3,4-dihydroquinazolin-6-yl)oxy)phenyl) 3-(difluoromethoxy)pyrrolidine-1-sulfonamide]
13 | 7 nM | 33 nM | 3 nM | 5.6 | 26 ×10⁻⁶ cm/s |  | Cn1cnc2ccc(Nc3c(F)ccc(NS(=O)(=O)N4C[C@@H](F)[C@@H](F)C4)c3Cl)c(F)c2c1=O [Example 21, cis-N-(2-chloro-4-fluoro-3-((5-fluoro-3-methyl-4-oxo-3,4-dihydroquinazolin-6-yl)amino)phenyl)-3,4-difluoropyrrolidine-1-sulfonamide]
0.9 | 22 nM | 88 nM |  | 0.8 | 25 ×10⁻⁶ cm/s | 7 nM | Cc1c(Oc2c(F)ccc(NS(=O)(=O)N3CCCC3)c2Cl)ccc2ncn(C)c(=O)c12 [Example 69, N-(2-chloro-3-((3,5-dimethyl-4-oxo-3,4-dihydroquinazolin-6-yl)oxy)-4-fluorophenyl)pyrrolidine-1-sulfonamide]
1.4 | 342 nM | 548 nM | 18 nM | 1.3 | 27 ×10⁻⁶ cm/s |  | Cc1c(Nc2cc(F)cc(NS(=O)(=O)N3CCCC3)c2Cl)ccc2ncn(C)c(=O)c12 [Example 150, N-(2-chloro-3-((3,5-dimethyl-4-oxo-3,4-dihydroquinazolin-6-yl)amino)-5-fluorophenyl)pyrrolidine-1-sulfonamide]
